The test deals with T1, human PAD4 (Homo sapiens, UniProt Q9UM07).
T1 construct: human PAD4 (NM_012387), A2P663, was PCR amplified; His-SUMO (N, cleaved yes); made in house; host or cells: E. coli BL21(DE3)
T1 sequence (Q9UM07 2-663): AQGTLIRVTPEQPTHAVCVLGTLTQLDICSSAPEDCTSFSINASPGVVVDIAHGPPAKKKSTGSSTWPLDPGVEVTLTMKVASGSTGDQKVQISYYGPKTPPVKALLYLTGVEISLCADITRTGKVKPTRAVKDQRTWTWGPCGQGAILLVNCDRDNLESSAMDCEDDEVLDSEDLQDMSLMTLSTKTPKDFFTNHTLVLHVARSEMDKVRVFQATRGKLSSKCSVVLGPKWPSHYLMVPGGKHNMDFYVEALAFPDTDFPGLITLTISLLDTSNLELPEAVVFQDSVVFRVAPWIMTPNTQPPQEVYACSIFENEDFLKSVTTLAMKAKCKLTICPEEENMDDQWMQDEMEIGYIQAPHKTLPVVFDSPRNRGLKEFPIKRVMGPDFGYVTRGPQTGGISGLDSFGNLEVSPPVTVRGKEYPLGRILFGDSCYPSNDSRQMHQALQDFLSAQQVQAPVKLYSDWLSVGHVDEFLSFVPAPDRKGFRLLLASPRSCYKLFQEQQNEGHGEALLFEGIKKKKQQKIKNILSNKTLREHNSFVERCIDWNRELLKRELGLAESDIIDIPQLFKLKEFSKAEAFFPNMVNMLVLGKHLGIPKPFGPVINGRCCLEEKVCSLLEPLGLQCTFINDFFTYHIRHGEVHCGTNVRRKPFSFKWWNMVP
In words: In vitro PAD4 BAEE biochemical assay. The conditions noted are these: human PAD4, BAEE substrate; 5 nM PAD4, 2 mM calcium chloride, 3 mM BAEE; geometric mean of multiple experiments. In short, it runs like this: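 Ammonia release from BAEE deimination monitored by o-phthalaldehyde amine coupling (1 h, 25 °C) after EDTA stop. Final conditions: 5 nM tag-free recombinant human PAD4 (E. coli), 2 mM CaCl2, 3 mM BAEE, pH 7.6 MOPS with DTT; 30 min compound preincubation, then 2 h reaction at 25 °C.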
For orientation: IC50 means the concentration that gives 50% inhibition. As to `COc1cc(C(=O)N2CC[C@H]3CCN[C@H]3C2)cc2nc(-c3cc4ccc([C@@H](C)NC(=O)c5ccccc5)nc4n3CC3CC3)c(C)n12` [Example 59, ~{N}-[(1~{R})-1-[2-[7-[(3~{a}~{R}, 7~{a}~{R})-1,2,3,3~{a},4,5,7,7~{a}-octahydropyrrolo[2,3-c]pyridine-6-carbonyl]-5-methoxy-3-methylimidazo[1,2-a]pyridin-2-yl]-1-(cyclopropylmethyl)pyrrolo[2,3-b]pyridin-6-yl]ethyl]benzamide], the IC50 was determined as 194 nM.

In the case of `COc1cc(C(=O)N2[C@H]3CC[C@@H]2[C@H](N)C3)cc2nc(-c3cc4ccc([C@@H](C)NC(=O)C56CC(Cl)(C5)C6)nc4n3CC3CC3)c(C)n12` [Example 133, ~{N}-[(1~{R})-1-[2-[7-[(1~{R},2~{R},4~{S})-2-amino-7-azabicyclo[2.2.1]heptane-7-carbonyl]-5-methoxy-3-methylimidazo [1,2-a]pyridin-2-yl]-1-(cyclopropylmethyl)pyrrolo [2,3-b]pyridin-6-yl]ethyl]-3-chlorobicyclo[1.1.1]pentane-1-carboxamide], the IC50 stood at 56.1 nM.

As for `COc1cc(C(=O)N2[C@H]3CC[C@@H]2[C@H](N)C3)cc2nc(-c3cc4ccc([C@@H](C)NC(=O)N5CCC(F)(F)C5)nc4n3CC3CC3)c(C)n12` [Example 243, ~{N}-[(1~{R})-1-[2-[7-[(1~{R},2~{R},4~{S})-2-amino-7-azabicyclo[2.2.1]heptane-7-carbonyl]-5-methoxy-3-methylimidazo [1,2-a]pyridin-2-yl]-1-(cyclopropylmethyl)pyrrolo [2,3-b]pyridin-6-yl]ethyl]-3,3-difluoropyrrolidine-1-carboxamide], the IC50 was 80.7 nM.

Consider `COc1cc(C(=O)N2[C@H]3CC[C@@H]2[C@H](N)C3)cc2nc(-c3cc4ccc([C@@H](C)NC(=O)C5CCC5(F)F)nc4n3CC3CC3)c(C)n12` (some centres unmarked) [Example 61, ~{N}-[(1~{R})-1-[2-[7-[(1~{R},2~{R},4~{S})-2-amino-7-azabicyclo [2.2.1]heptane-7-carbonyl]-5-methoxy-3-methylimidazo [1,2-a]pyridin-2-yl]-1-(cyclopropylmethyl)pyrrolo[2,3-b]pyridin-6-yl]ethyl]-2,2-difluorocyclobutane-1-carboxamide], for which the IC50 worked out at 37.8 nM.

On to `COc1cc(C(=O)N2C[C@H](N)CC[C@@H]2C)cc2nc(-c3cc4ccc(C5CC5)nc4n3CC3CC3)c(C)n12` [Example 612, [(2~{S},5~{R})-5-amino-2-methylpiperidin-1-yl]-[2-[6-cyclopropyl-1-(cyclopropylmethyl)pyrrolo [2,3-b]pyridin-2-yl]-5-methoxy-3-methylimidazo[1,2-a]pyridin-7-yl]methanone], for which the IC50 was 743 nM.

Turning to `COc1cc(C(=O)N2[C@H]3CC[C@@H]2[C@H](N)C3)cc2nc(-c3cc4ccc(N(C(F)F)S(C)(=O)=O)nc4n3CC3CC3)c(C)n12` [Example 389, N-(2-(7-((1R,2R,4S)-2-amino-7-azabicyclo[2.2.1]heptane-7-carbonyl)-5-methoxy-3-methylimidazo[1,2-a]pyridin-2-yl)-1-(cyclopropylmethyl)-1H-pyrrolo[2,3-b]pyridin-6-yl)-N-(difluoromethyl)methanesulfonamide], the concentration for half-maximal inhibition (IC50) came out at 84.8 nM.

For `COc1ccc2cc(-c3nc4cc(C(=O)N5CCC[C@@H](N)C5)cc(OC)n4c3C)n(CC3CC3)c2n1` [Example 629, [(3~{R})-3-aminopiperidin-1-yl]-[2-[1-(cyclopropylmethyl)-6-methoxypyrrolo[2,3-b]pyridin-2-yl]-5-methoxy-3-methylimidazo[1,2-a]pyridin-7-yl]methanone], the IC50 amounted to 2270 nM.

As for `COc1cc(C(=O)N2[C@H]3CC[C@H](N)[C@@H]2CC3)cc2nc(-c3cc4ccc(N(C(F)F)S(C)(=O)=O)nc4n3CC3CC3)c(C)n12` [Example 408, ~{N}-[2-[7-[(1~{S},2~{S}, 5~{S})-2-amino-8-azabicyclo[3.2.1]octane-8-carbonyl]-5-methoxy-3-methylimidazo[1,2-a]pyridin-2-yl]-1-(cyclopropylmethyl)pyrrolo [2,3-b]pyridin-6-yl]-~{N}-(difluoromethyl) methanesulfonamide], the IC50 was determined as 3020 nM.

`COc1cc(C(=O)N2[C@H]3CC[C@@H]2[C@H](N)C3)cc2nc(-c3cc4ccc([C@@H](C)NC(=O)c5cn(C)nn5)nc4n3CC3CC3)c(C)n12` [Example 1, ~{N}-[(1~{R})-1-[2-[7-[(1~{R},2~{R},4~{S})-2-amino-7-azabicyclo[2.2.1]heptane-7-carbonyl]-5-methoxy-3-methylimidazo [1,2-a]pyridin-2-yl]-1-(cyclopropylmethyl)pyrrolo [2,3-b]pyridin-6-yl]ethyl]-1-methyltriazole-4-carboxamide]: the IC50 turned out to be 85.7 nM.

With `COc1cc(C(=O)N2C[C@H](N)C[C@@H]2CF)cc2nc(-c3cc4ccc(N(C(F)F)S(C)(=O)=O)nc4n3CC3CC3)c(C)n12` [Example 353, N-[2-[7-[(2R,4R)-4-amino-2-(fluoromethyl)pyrrolidine-1-carbonyl]-5-methoxy-3-methyl-imidazo[1,2-a]pyridin-2-yl]-1-(cyclopropylmethyl)pyrrolo [2,3-b]pyridin-6-yl]-N-(difluoromethyl) methanesulfonamide], the IC50 worked out at 26800 nM.

For `COc1cc(C(=O)N2CCC[C@@H](N)C2)cc2nc(-c3cc4ccc([C@@H](C)NC(=O)N5CC(O)C5)nc4n3CC3CC3)c(C3CC3)n12` [Example 146, ~{N}-[(1~{R})-1-[2-[7-[(3~{R})-3-aminopiperidine-1-carbonyl]-3-cyclopropyl-5-methoxyimidazo [1,2-a]pyridin-2-yl]-1-(cyclopropylmethyl)pyrrolo [2,3-b]pyridin-6-yl]ethyl]-3-hydroxyazetidine-1-carboxamide], the IC50 is 160 nM.

As for `COc1cc(C(=O)N[C@@H]2CC[C@H]3CC[C@@H]2N3)cc2nc(-c3cc4ccc(N(C(F)F)S(C)(=O)=O)nc4n3CC3CC3)c(C)n12` [Example 298, ~{N}-[(1~{S},2~{R}, 5~{R})-8-azabicyclo [3.2.1]octan-2-yl]-2-[1-(cyclopropylmethyl)-6-[difluoromethyl (methylsulfonyl)amino]pyrrolo[2,3-b]pyridin-2-yl]-5-methoxy-3-methylimidazo[1,2-a]pyridine-7-carboxamide], the IC50 was 30000 nM.

As for `COc1cc(C(=O)N2[C@H]3CC[C@@H]2[C@H](N)C3)cc2nc(-c3cc4ccc(N5CCCCCS5(=O)=O)nc4n3CC3CC3)c(C)n12` [Example 459, [(1~{R},2~{R},4~{S})-2-amino-7-azabicyclo [2.2.1]heptan-7-yl]-[2-[1-(cyclopropylmethyl)-6-(1,1-dioxothiazepan-2-yl)pyrrolo[2,3-b]pyridin-2-yl]-5-methoxy-3-methylimidazo[1,2-a]pyridin-7-yl]methanone], the IC50 stood at 28 nM.

In the case of `COc1cc(C(=O)N2[C@H]3CC[C@@H]2[C@H](N)C3)cc2nc(-c3cc4ccc([C@@H](C)NC(=O)C5(C)COC5)nc4n3CC3CC3)c(C3CC3)n12` [Example 109, ~{N}-[(1~{R})-1-[2-[7-[(1~{R},2~{R},4~{S})-2-amino-7-azabicyclo[2.2.1]heptane-7-carbonyl]-3-cyclopropyl-5-methoxyimidazo [1,2-a]pyridin-2-yl]-1-(cyclopropylmethyl)pyrrolo [2,3-b]pyridin-6-yl]ethyl]-3-methyloxetane-3-carboxamide], the IC50 came to 31.7 nM.
